Results: patent publication US12157723B2, “Compounds” (CYBIN UK LTD, priority 2019, dated 2024)
Like-named read-outs stand apart in the source and are kept apart here.

Tests used:
[1] = humans, 0.05 mg/kg to 0.4 mg/kg, bolus injections or infusions; cited from earlier work
[2] = cited from earlier work; for participants with psychiatric diagnoses whose symptoms improved following use: uncontrolled setting, self-report
[3] = without coadministration of a monoamine oxidase inhibitor; cited from earlier work
[4] = Solubility of API in water (vessel cleaning note); format: physicochemical

In the case of CN(C)CCc1c[nH]c2ccccc12 [DMT (SPL026), N,N-dimethyltryptamine], the tolerability [1] is given as “well-tolerated”.

In the case of COc1ccc2[nH]cc(CCN(C)C)c2c1 [Mixture 5-MeO-DMT, 5-methoxy-N,N-dimethyltryptamine], the “individuals reporting improvements in their conditions following use” value ([2]; alcoholism or hazardous drinking, n=75 out of 113) is listed as 66%, the “participants with psychiatric diagnoses whose symptoms improved following use” value (from here on “participants”) ([2]; anxiety) is listed as 69% and the “participants” value ([2]; depression) is listed as 77%. For the same compound, the “participants” value ([2]; post-traumatic stress disorder) was 79% and the oral bioavailability [3] was “not orally bioavailable”.

For CN(C)CCc1c[nH]c2ccccc12.O=C(O)/C=C/C(=O)O [API, N,N-DMT fumarate], the solubility in water [4] was “API highly soluble”.
